Measurements from patent publication US20100160369A1, “S1P1 Agonists and Methods of Making And Using” (EXELIXIS, INC., priority 2008, published 2010).
pEC50: −log10 of the molar value.

Experiments:
S1P1 [1] = target: T1, S1P1 (Homo sapiens, UniProt P21453); test: CNG cAMP Assay (Assay 1); assay type: cell-based; parameters: host or cells: HEK293 cells expressing the CNG channel; settings: read-out: Assay 1 EC50
In short: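 HEK293 cells expressing CNG channel and S1P1, membrane-potential dye loaded; compounds (top 10 μM, 10-point 3-fold, 1.8% DMSO) added with 25 μM Ro 20-1724, 500 nM NECA and 10 nM S1P for 90 min. T90/T0 fluorescence (Ex 350/Em 590 nm) normalised to NECA-alone vs DMSO; EC50 fitted.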
Target sequence in this assay (P21453 whole entry): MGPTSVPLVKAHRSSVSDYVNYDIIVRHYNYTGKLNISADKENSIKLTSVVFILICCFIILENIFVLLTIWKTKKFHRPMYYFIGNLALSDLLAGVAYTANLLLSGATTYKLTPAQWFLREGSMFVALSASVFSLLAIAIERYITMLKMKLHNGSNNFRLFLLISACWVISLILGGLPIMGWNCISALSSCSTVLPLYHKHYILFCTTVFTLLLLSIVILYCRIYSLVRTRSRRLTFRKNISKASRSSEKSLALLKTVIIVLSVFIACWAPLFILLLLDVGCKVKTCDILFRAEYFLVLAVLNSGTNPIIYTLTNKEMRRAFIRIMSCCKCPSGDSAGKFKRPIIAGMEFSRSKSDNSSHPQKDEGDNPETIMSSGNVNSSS

S1P1 [2] = target: T1, S1P1; test: Tango β-arrestin Recruitment Assay in HEK293 cells (Assay 2a); assay type: cell-based; parameters: linker with TEV protease (N1a) cleavage site (C); host or cells: HEK293, transiently transfected; settings: Tango β-arrestin Recruitment Assay, read-out: Assay 2a EC50
In short: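 HEK293 cells transiently expressing S1P1 (TEV-cleavable tTA fusion) with β-arrestin2–TEV; compounds up to 10 μM, 10-point 3-fold, 1% DMSO, 30 min then 16–18 h at 37 °C. Luciferase luminescence normalised to 5 μM S1P as 100% and DMSO as background; EC50 from percent-activity curves.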
Target sequence in this assay (P21453 whole entry): as above
Target sequence in this assay (P32121 whole entry partner): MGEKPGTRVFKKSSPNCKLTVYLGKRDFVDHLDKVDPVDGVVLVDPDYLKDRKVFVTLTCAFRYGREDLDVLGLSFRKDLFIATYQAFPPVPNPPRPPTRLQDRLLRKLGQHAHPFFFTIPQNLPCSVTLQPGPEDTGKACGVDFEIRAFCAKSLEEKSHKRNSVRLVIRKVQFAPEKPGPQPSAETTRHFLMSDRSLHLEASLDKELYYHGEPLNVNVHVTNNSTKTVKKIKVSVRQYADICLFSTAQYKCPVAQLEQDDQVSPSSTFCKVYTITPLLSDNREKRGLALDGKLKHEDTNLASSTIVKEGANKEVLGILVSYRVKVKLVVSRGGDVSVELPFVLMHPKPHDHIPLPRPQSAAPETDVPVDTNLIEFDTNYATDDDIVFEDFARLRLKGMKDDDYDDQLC

S1P1 [3] = target: T1, S1P1; test: DELFIA GTP-Eu Binding Assay (Assay 3b); assay type: biochemical; parameters: purchased Lonza; host or cells: CHO cell membranes
Description: The DELFIA GTP-Eu binding assay (PerkinElmer) is a time-resolved fluorometric assay based on GDP-GTP exchange. CHO cell membranes (Lonza) expressing human S1P1 were incubated in 96-well filter plates (Pall, East Hills, N.Y.) in a final volume of 100 μL/well buffer containing 40 μg/mL membrane, 50 mM HEPES, 2 μM GDP, 10 mM MgCl2, 100 mM NaCl, 500 μg/mL Saponin and test compound. Test compounds were tested at maximum concentrations of 10 μM. Compounds were diluted (10 concentration points, 3-fold each) and added to the assay plate at a 1% final DMSO concentration. For each compound, there were duplicate assay plates and each assay plate had duplicate wells per concentration point. The plates were incubated for 30 min at room temperature on a plate shaker at low speed. GTP-Eu was added to each well (10 μL, 10 nM final concentration) and the plate was incubated for an additional 30 min with slow shaking The wells were washed with ice cold GTP washing buffer (3×150 μL) using a vacuum manifold and the assay plates read in an EnVision plate reader (PerkinElmer) at an excitation wavelength of 340 nm and an emission wavelength of 615 nm. To determine agonist activity, percent activity was calculated as [(test compound−background)/(positive control−background)*100], where background is the fluorescence in absence of compound and the positive control is the fluorescence from membranes incubated with 1 μM S1P (Avanti). The percent activities were plotted against compound concentration to determine IC50 or EC50 using XLFit (IDBS).
(§1) Assay 1 is the CNG cAMP Assay as described in Biological Example 1. Assay 2a and 2b are the Tango™ β-arrestin Recruitment Assay in HEK293 and U2OS cells, respectively, as described in Biological Example 2. Assay 3a is the hS1P1R GTPγS Binding Assay as described in Biological Example 3. Assay 3b is the GTP-Eu Binding Assay as described in Biological Example 3. EC50's were measured unless otherwise noted. […] In the table, “nt” means the Compound was not tested and “no” means the compound was tested but had no measurable activity under the assay conditions employed.
Target sequence in this assay (P21453 whole entry): as the sequence (P21453 whole entry) above

hS1P1R (hEdg1) = target: T2, hS1P1R (hEdg1) (Homo sapiens, UniProt P21453); test: hS1P1R GTPγS Binding Assay (Assay 3a); assay type: biochemical
T2 construct: purchased Lonza
T2 sequence (P21453 whole entry): as above
Description: The hS1P1R GTPγS binding assay was carried out at room temperature in 96 well non-binding surface assay plates. The reaction in each well contained 4 μg hS1P1R (hEdg1) membrane protein (Lonza), 30 μM GDP, 0.1 nM [^35S]GTPγS, 0.25% fatty acid free BSA, and serially diluted hS1P1R agonist compound in 200 μL assay buffer (25 mM Tris-HCl PH 7.9, 100 mM NaCl, 3 mM MgCl2, and 0.2 mM EGTA). After one hour of incubation, 0.9 mg of WGA (Wheat Germ Agglutinin) SPA beads in 50 μL of assay buffer was added to each well. The SPA beads were spun down after an additional one hour incubation. The radioactivity of the bound GTPγS was counted by reading the assay plate using a MicroBeta.
as §1

S1P1 [4] = target: T1, S1P1; test: Tango β-arrestin Recruitment Assay in U2OS cells (Assay 2b); assay type: cell-based; parameters: linker with TEV protease (N1a) cleavage site (C); settings: Tango β-arrestin Recruitment Assay, read-out: Assay 2b EC50
In short: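 U2OS cells expressing S1P1 and reporter, serum-starved 48 h, treated with compound (10-point 3-fold series, top 1 μM, 1% DMSO) overnight at 37 °C; β-lactamase substrate added 2 h at room temperature. F460/F530 ratio normalised to 1 μM S1P (100%) and DMSO; EC50 from concentration-response.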
Target sequence in this assay (P21453 whole entry): as above
Target sequence in this assay (P32121 whole entry partner): as the sequence (P32121 whole entry partner) above

[5] = relative EC50 was measured (footnote 1), read-out: Assay 3b Relative EC50
[6] = footnote 1: Relative EC50 was measured, read-out: Assay 3b Relative EC50

SMILES | pEC50 (S1P1 [1]) | pEC50 (S1P1 [2]) | pEC50 (S1P1 [3]; [5]) | pEC50 (S1P1 [3]; read-out: Assay 3b EC50) | pEC50 (S1P1 [3]; [6]) | pEC50 (hS1P1R (hEdg1)) | pEC50 (S1P1 [4])
O=C(O)CCc1ccc(-c2nnc(-c3cn4cc(C(F)(F)F)cc(Cl)c4n3)o2)c(Cl)c1 [Example 99] | ≥ 7.00 | 6.30 to 7.00 | 5.30 to 6.00 | – | – | – | –
O=C(O)C1CN(Cc2ccc(-c3noc(-c4cn5cc(C(F)(F)F)cc(Cl)c5n4)n3)c(Cl)c2)C1 [Example 124, 1-[(3-chloro-4-{5-[8-chloro-6-(trifluoromethyl)imidazo[1,2-a]pyridin-2-yl]-1,2,4-oxadiazol-3-yl}phenyl)methyl]azetidine-3-carboxylic acid] | 6.30 to 7.00 | 6.30 to 7.00 | 5.30 to 6.00 | – | – | – | –
O=C(O)CCNCc1ccc(-c2noc(-c3cn4cc(C(F)(F)F)cc(Cl)c4n3)n2)c(Cl)c1 [Example 130, N-[(3-chloro-4-{5-[8-chloro-6-(trifluoromethyl)imidazo[1,2-a]pyridin-2-yl]-1,2,4-oxadiazol-3-yl}phenyl)methyl]-beta-alanine] | ≥ 7.00 | 6.30 to 7.00 | – | 6.00 to 6.30 | – | – | –
O=C(O)CCNCc1ccc(-c2noc(-c3cn4cc(C(F)(F)F)cc(Br)c4n3)n2)c(Cl)c1 [Example 131, N-[(4-{5-[8-bromo-6-(trifluoromethyl)imidazo[1,2-a]pyridin-2-yl]-1,2,4-oxadiazol-3-yl}-3-chlorophenyl)methyl]-beta-alanine] | ≥ 7.00 | 6.30 to 7.00 | – | 5.30 to 6.00 | – | – | –
O=C(O)C1CN(Cc2ccc(-c3noc(-c4cn5cc(C(F)(F)F)cc(Br)c5n4)n3)c(Cl)c2)C1 [Example 132, 1-[(4-{5-[8-bromo-6-(trifluoromethyl)imidazo[1,2-a]pyridin-2-yl]-1,2,4-oxadiazol-3-yl}-3-chlorophenyl)methyl]azetidine-3-carboxylic acid] | ≥ 7.00 | 6.30 to 7.00 | – | 5.30 to 6.00 | – | – | –
O=C(O)CC(O)c1ccc(-c2noc(-c3cn4cc(C(F)(F)F)cc(Cl)c4n3)n2)c(Cl)c1 (stereo not shown) [Example 139, 3-(3-chloro-4-{5-[8-chloro-6-(trifluoromethyl)imidazo[1,2-a]pyridin-2-yl]-1,2,4-oxadiazol-3-yl}phenyl)-3-hydroxypropanoic acid] | ≥ 7.00 | ≥ 7.00 | – | – | 6.30 to 7.00 | – | –
CC(C)Cc1cc(Cl)c2nc(-c3nc(-c4cc(F)c(CCC(=O)O)cc4Cl)no3)cn2c1 [Example 149, 3-(5-chloro-4-{5-[8-chloro-6-(2-methylpropyl)imidazo[1,2-a]pyridin-2-yl]-1,2,4-oxadiazol-3-yl}-2-fluorophenyl)propanoic acid] | ≥ 7.00 | ≥ 7.00 | – | – | ≥ 7.00 | – | –
OCCOc1cc(Cl)c(-c2noc(-c3cn4cc(C(F)(F)F)cc(Cl)c4n3)n2)cc1Cl [Example 288, 2-[(2,5-dichloro-4-{5-[8-chloro-6-(trifluoromethyl)imidazo[1,2-a]pyridin-2-yl]-1,2,4-oxadiazol-3-yl}phenyl)oxy]ethanol] | ≥ 7.00 | ≥ 7.00 | – | – | – | ≥ 7.00 | ≥ 7.00
OC[C@@H](O)COc1cc(Cl)c(-c2noc(-c3cn4cc(C(F)(F)F)cc(Cl)c4n3)n2)cc1Cl [Example 289, (2R)-3-[(2,5-dichloro-4-{5-[8-chloro-6-(trifluoromethyl)imidazo[1,2-a]pyridin-2-yl]-1,2,4-oxadiazol-3-yl}phenyl)oxy]propane-1,2-diol] | ≥ 7.00 | ≥ 7.00 | – | – | – | ≥ 7.00 | ≥ 7.00
CC(O)COc1cc(Cl)c(-c2noc(-c3cn4cc(C(F)(F)F)cc(Cl)c4n3)n2)cc1Cl (stereo not shown) [Example 292, 1-[(2,5-dichloro-4-{5-[8-chloro-6-(trifluoromethyl)imidazo[1,2-a]pyridin-2-yl]-1,2,4-oxadiazol-3-yl}phenyl)oxy]propan-2-ol] | ≥ 7.00 | ≥ 7.00 | – | – | – | 6.30 to 7.00 | ≥ 7.00
O=C(O)CCc1cc(Cl)c(-c2nc(-c3cn4cc(C(F)(F)F)cc(Cl)c4n3)no2)cc1Cl [Example 315, 3-(2,5-dichloro-4-{3-[8-chloro-6-(trifluoromethyl)imidazo[1,2-a]pyridin-2-yl]-1,2,4-oxadiazol-5-yl}phenyl)propanoic acid] | ≥ 7.00 | ≥ 7.00 | – | – | – | 6.30 to 7.00 | ≥ 7.00
